Source: PMC6525201, “Targeting lonidamine to mitochondria mitigates lung tumorigenesis and brain metastasis” (Nature Communications, 2019)

What was measured:
mitochondrial complex I = target: T1, mitochondrial complex I (Homo sapiens, UniProt O75251+O75306+P03886); assay: oxygen consumption rate, Seahorse XF96, permeabilized cells; assay type: cell-based
T1 construct: gene MT-ND1; native complex in permeabilized H2030BrM3 cells

mitochondrial complex II = target: T2, mitochondrial complex II (Homo sapiens, UniProt O14521+P21912+Q99643); assay: as above; assay type: cell-based
T2 construct: gene SDHB; native complex in permeabilized H2030BrM3 cells
T2 sequence (P21912 29-280): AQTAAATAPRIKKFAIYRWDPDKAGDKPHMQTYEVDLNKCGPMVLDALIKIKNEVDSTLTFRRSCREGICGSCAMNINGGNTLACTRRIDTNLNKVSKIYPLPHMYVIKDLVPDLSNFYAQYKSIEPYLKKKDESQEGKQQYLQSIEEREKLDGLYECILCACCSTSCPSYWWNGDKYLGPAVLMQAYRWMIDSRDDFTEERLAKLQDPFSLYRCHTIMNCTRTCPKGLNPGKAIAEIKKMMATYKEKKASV
T2 sequence (Q99643 30-169): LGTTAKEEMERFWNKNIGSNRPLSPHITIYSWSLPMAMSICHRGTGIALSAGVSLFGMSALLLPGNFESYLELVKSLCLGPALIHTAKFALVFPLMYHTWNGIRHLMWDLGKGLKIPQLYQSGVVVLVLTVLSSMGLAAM
T2 sequence (O14521 57-159): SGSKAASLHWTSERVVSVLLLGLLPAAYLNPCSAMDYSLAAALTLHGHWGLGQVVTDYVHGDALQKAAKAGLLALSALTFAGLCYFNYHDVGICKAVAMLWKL
T2 sequence (P31040 43-664 partner): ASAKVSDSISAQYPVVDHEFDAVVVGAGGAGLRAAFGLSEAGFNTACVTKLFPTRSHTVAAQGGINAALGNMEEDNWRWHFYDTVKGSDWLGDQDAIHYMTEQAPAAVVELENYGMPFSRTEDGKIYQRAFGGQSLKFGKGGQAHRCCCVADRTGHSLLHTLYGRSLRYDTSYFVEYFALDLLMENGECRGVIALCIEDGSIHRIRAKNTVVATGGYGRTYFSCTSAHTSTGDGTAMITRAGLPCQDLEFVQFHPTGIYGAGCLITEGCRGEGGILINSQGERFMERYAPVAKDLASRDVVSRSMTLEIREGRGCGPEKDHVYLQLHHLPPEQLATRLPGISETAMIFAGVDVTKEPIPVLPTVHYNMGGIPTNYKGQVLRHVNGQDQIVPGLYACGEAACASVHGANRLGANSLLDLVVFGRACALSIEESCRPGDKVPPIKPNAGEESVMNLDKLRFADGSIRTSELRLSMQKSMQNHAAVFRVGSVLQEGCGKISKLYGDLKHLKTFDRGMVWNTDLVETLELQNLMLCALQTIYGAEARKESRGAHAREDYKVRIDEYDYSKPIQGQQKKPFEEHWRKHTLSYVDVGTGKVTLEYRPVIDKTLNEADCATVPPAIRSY

| SMILES | IC50 (mitochondrial complex I) [µM] | IC50 (mitochondrial complex II) [µM] |
| --- | --- | --- |
| O=C(O)c1nn(Cc2ccc(Cl)cc2Cl)c2ccccc12 [LND] | 444 | 390 |
| O=C(NCCCCCCCCCC[P+](c1ccccc1)(c1ccccc1)c1ccccc1)c1nn(Cc2ccc(Cl)cc2Cl)c2ccccc12 [Mito-LND] | 1.2 | 2.4 |
